US9783536B2, “Nitrogen-containing heterocyclic compound or salt thereof” (FUJIFILM Corporation, priority 2013, dated 2017)
Where two headings read alike, the source gives them in different places.

Tests used:
Assay type in all cases: biochemical
[1] = biological target: T1, GST fusion human ERK2 protein (Homo sapiens, UniProt P28482); experiment: ERK2 enzyme assay (1); conditions: read-out: ERK2 enzyme inhibitory activity (1)
T1 construct: purchased Carna Biosciences, Inc; host or cells: E. coli expression system
T1 sequence (P28482 whole entry, the tested form may be a part): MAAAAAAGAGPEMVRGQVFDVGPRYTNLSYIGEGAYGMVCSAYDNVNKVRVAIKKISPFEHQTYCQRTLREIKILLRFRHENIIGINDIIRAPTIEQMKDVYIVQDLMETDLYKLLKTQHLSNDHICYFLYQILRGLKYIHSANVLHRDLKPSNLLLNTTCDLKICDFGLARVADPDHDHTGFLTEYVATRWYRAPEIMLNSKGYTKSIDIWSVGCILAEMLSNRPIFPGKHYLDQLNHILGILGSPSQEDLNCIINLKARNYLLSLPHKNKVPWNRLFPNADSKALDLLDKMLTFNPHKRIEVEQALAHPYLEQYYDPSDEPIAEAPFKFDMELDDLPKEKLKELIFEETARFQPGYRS
How it was run: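 IC50 derived from the proportion of phosphorylated 5-FAM peptide, separated from unphosphorylated peptide by microfluidic mobility shift. Compound was first preincubated 15 min at room temperature with 2.5 nmol/L kinase at pH 7.5, then 43.1 μmol/L ATP plus 4.25 μmol/L substrate reacted 120 min at 25 °C.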

human PI3Kα protein = biological target: T2, human PI3Kα protein (Homo sapiens, UniProt P42336); experiment: PI3Kα enzyme assay (ADP-Glo); conditions: read-out: PI3Kα enzyme inhibitory activity
T2 construct: purchased Carna Biosciences, Inc; host or cells: baculovirus expression system
T2 sequence (P42336 whole entry): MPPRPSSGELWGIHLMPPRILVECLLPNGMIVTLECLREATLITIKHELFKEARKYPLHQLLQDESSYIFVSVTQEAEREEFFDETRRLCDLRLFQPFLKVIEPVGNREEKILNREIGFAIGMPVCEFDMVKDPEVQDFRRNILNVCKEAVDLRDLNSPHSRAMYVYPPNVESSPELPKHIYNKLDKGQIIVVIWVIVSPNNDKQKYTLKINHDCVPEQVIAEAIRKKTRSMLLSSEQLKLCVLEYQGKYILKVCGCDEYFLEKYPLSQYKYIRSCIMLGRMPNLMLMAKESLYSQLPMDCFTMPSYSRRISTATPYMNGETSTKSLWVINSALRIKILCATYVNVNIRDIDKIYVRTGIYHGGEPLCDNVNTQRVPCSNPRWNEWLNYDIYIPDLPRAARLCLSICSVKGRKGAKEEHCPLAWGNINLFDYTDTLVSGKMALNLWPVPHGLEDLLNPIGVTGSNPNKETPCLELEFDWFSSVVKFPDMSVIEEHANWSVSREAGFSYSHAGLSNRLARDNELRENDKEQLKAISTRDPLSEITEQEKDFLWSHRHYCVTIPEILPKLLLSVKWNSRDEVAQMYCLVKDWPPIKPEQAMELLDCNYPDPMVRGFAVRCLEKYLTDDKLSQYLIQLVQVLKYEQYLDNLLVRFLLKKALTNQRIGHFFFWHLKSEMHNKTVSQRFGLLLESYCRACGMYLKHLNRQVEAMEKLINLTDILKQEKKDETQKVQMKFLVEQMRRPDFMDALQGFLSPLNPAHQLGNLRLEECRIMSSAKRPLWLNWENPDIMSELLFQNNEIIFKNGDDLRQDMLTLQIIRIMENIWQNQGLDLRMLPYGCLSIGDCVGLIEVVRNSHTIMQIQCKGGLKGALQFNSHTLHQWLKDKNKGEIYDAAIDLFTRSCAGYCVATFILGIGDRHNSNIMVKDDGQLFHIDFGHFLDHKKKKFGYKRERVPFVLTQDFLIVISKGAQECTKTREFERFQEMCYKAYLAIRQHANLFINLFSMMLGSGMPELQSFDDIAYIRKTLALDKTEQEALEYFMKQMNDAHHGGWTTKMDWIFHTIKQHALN
T2 sequence (P27986 whole entry partner): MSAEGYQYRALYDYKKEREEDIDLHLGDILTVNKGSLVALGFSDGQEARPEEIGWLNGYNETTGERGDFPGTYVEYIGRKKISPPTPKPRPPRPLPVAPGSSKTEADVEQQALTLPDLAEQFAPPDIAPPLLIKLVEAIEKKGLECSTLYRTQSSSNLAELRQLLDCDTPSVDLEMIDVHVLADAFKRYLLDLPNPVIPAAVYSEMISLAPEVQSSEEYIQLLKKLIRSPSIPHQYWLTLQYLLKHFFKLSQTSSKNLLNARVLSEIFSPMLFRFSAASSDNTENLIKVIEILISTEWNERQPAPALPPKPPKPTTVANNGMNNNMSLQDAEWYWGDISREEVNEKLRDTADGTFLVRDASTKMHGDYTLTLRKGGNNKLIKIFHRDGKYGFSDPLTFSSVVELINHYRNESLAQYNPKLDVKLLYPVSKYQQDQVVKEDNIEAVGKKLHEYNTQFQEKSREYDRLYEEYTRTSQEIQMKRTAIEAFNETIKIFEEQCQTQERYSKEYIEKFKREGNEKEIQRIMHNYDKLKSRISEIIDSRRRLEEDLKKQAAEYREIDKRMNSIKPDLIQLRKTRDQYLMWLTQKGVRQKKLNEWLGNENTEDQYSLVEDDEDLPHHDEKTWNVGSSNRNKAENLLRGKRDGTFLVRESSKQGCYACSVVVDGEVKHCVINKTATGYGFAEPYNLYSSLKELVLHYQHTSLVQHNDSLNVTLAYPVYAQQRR
How it was run: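 Biotinylated human PI3Kα (baculovirus-expressed, 4.5 nmol/L) pre-incubated 15 min with compound in Tris-HCl pH 7.5, MgCl2, BSA; reaction 60 min at 25° C with 50 μmol/L PIP2 and 100 μmol/L ATP final. ADP quantified by ADP-Glo luminescence; IC50 calculated.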

[2] = biological target: T1, GST fusion human ERK2 protein; experiment: ERK2 enzyme assay (2); conditions: read-out: ERK2 enzyme inhibitory activity (2)
How it was run: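 IC50 values come from mobility-shift measurement of phosphorylated versus unphosphorylated 5-FAM peptide substrate after EDTA quench. Beforehand, compound and 1.25 nmol/L E. coli-expressed GST–human ERK2 stood 15 min at room temperature (pH 7.5), then 1 mmol/L ATP and 4.25 μmol/L substrate (final) were added for 120 min at 25 °C.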

[3] = 2.5 nmol/L ERK2, ATP 43.1 μmol/L
[4] = 4.5 nmol/L PI3Kα, PIP2 50 μmol/L, ATP 100 μmol/L

Compound | IC50 ([1]; ERK2 enzyme assay (1)) [nM] | IC50 (human PI3Kα protein) [nM] | IC50 ([2]; ERK2 enzyme assay (2)) [nM] | IC50 [1, 3] [nM] | IC50 (human PI3Kα protein; [4]) [nM] | IC50 ([2]; 1.25 nmol/L ERK2, ATP 1 mmol/L) [nM]
c1cc(Cc2nnc(Nc3ccc4ncc(-c5cnn(CCCN6CCCC6)c5)cc4n3)s2)ccn1 [Example 0266] | < 1000 | < 1000 | < 1000 |  |  | 
CC(C)(C)c1cnnc(Nc2ccc3ncc(-c4cnn(CCCN5CCCC5)c4)cc3n2)c1 [Example 0290] | < 1000 | < 1000 | < 1000 |  |  | 
COc1nn(C)cc1-c1cnc2ccc(Nc3nnc(C(C)C)s3)nc2c1 [Example 0131] |  |  |  | < 1000 | < 1000 | < 1000
COCc1nn(C)cc1-c1cnc2ccc(Nc3cc(C(C)C)cnn3)nc2c1 [Example 0160] |  |  |  | < 1000 | < 1000 | < 1000
CC(=O)N1CCC(c2nnc(Nc3ccc4ncc(-c5cnn(C)c5)cc4n3)s2)C1 (stereo not drawn) [Example 0253, 1-(3-(5-((7-(1-Methyl-1H-pyrazol-4-yl)-1,5-naphthyridin-2-yl)amino)-1,3,4-thiadiazol-2-yl)pyrrolidin-1-yl)ethanone] | < 1000 | 1000 to 10000 | < 1000 |  |  | 
CC(C)c1cnnc(Nc2ccc3ncc(Nc4cncc(OCCN5CCOCC5)c4)cc3n2)c1 [Example 0159, N^2-(5-isopropylpyridazin-3-yl)-N^7-(5-(2-morpholinoethoxyl)pyridin-3-yl)-1,5-naphthyridine-2,7-diamine] |  |  |  | < 1000 | < 1000 | < 1000
CC(=O)N1CCCC1c1nnc(Nc2ccc3ncc(-c4cnn(C)c4)cc3n2)s1 (stereo not drawn) [Example 0248, 1-(2-(5-((7-(1-methyl-1H-pyrazol-4-yl)-1,5-naphthyridin-2-yl)amino)-1,3,4-thiadiazol-2-yl)pyrrolidin-1-yl)ethanone] | < 1000 | 1000 to 10000 | < 1000 |  |  | 
COCCCn1cc(-c2cnc3ccc(Nc4cc(C(C)C)cnn4)nc3c2)cn1 [Example 0472] | < 1000 | < 1000 | < 1000 |  |  | 
CC(C)c1cnnc(Nc2ccc3ncc(-c4cnn(CCCc5ccccc5)c4)cc3n2)c1 [Example 0372] | < 1000 | 1000 to 10000 | < 1000 |  |  | 
CC(C)c1cnnc(Nc2ccc3ncc(-c4cnn(C5CCOCC5)c4)cc3n2)c1 [Example 0475, N-(5-isopropylpyridazin-3-yl)-7-(1-(tetrahydro-2H-pyran-4-yl)-1H-pyrazol-4-yl)-1,5-naphthyridine-2-amine] | < 1000 | < 1000 | < 1000 |  |  | 
CS(=O)(=O)Cc1nnc(Nc2ccc3ncc(-c4cnn(CCCN5CCCC5)c4)cc3n2)s1 [Example 0258] | < 1000 | < 1000 | < 1000 |  |  | 
CC(C)Cc1cnnc(Nc2ccc3ncc(-c4cnn(CCCN5CCCC5)c4)cc3n2)c1 [Example 0292] | < 1000 | < 1000 | < 1000 |  |  | 
Cn1cc(-c2cnc3ccc(Nc4nnc(C5CCNC5)s4)nc3c2)cn1 (stereo not drawn) [Example 0251] | < 1000 | 1000 to 10000 | < 1000 |  |  | 
c1nc2ccc(Nc3nnc(C4CCCC4)s3)nc2cc1N1CCOCC1 [Example 0311, 5-cyclopentyl-N-(7-morpholino-1,5-naphthyridin-2-yl)-1,3,4-thiadiazole-2-amine] | < 1000 | 1000 to 10000 | < 1000 |  |  | 
OC(CN1CCCC1)Cn1cc(-c2cnc3ccc(Nc4nnc(C5CCCC5)s4)nc3c2)cn1 (stereo not drawn) [Example 0356, 1-(4-(6-((5-Cyclopentyl-1,3,4-thiadiazol-2-yl)amino)-1,5-naphthyridin-3-yl)-1H-pyrazol-1-yl)-3-(pyrrolidin-1-yl)propan-2-ol] | < 1000 | < 1000 | < 1000 |  |  | 
CCc1nn(C)cc1-c1cnc2ccc(Nc3nnc(C(C)C)s3)nc2c1 [Example 0121] |  |  |  | < 1000 | < 1000 | < 1000
c1nc2ccc(Nc3cc(N4CCCC4)cnn3)nc2cc1-c1cnn(CCCN2CCCC2)c1 [Example 0402, 7-(1-(3-(Pyrrolidin-1-yl)propyl)-1H-pyrazol-4-yl)-N-(5-(pyrrolidin-1-yl)pyridazin-3-yl)-1,5-naphthyridine-2-amine] | < 1000 | < 1000 | < 1000 |  |  | 
CC(C)c1cnnc(Nc2ccc3ncc(-c4cnn(C)c4)nc3n2)c1 [Example 0014, N-(5-isopropylpyridazin-3-yl)-3-(1-methyl-1H-pyrazol-4-yl)pyrido[2,3-b]pyrazine-6-amine] |  |  |  | < 1000 | < 1000 | < 1000
OCCCN1CCC(n2cc(-c3cnc4ccc(Nc5nnc(C6CCCC6)s5)nc4c3)cn2)CC1 [Example 0337, 3-(4-(4-(6-((5-Cyclopentyl-1,3,4-thiadiazol-2-yl)amino)-1,5-naphthyridin-3-yl)-1H-pyrazol-1-yl)piperidin-1-yl)propan-1-ol] | < 1000 | < 1000 | < 1000 |  |  | 

Compound | IC50 ([1]; ERK2 enzyme assay (1)) [nM] | IC50 (human PI3Kα protein) [nM] | IC50 ([2]; ERK2 enzyme assay (2)) [nM] | IC50 [1, 3] [nM] | IC50 (human PI3Kα protein; [4]) [nM] | IC50 ([2]; 1.25 nmol/L ERK2, ATP 1 mmol/L) [nM]
CCCc1nn(C)cc1-c1cnc2ccc(Nc3nnc(C4CCCC4)s3)nc2c1 [Example 0112] |  |  |  | < 1000 | < 1000 | < 1000
c1nc2ccc(Nc3nnc(C4CCC4)s3)nc2cc1-c1cnn(CCCN2CCCC2)c1 [Example 0235] | < 1000 | < 1000 | < 1000 |  |  | 
c1cc(OC2CCOCC2)ncc1Nc1cnc2ccc(Nc3nnc(C4CCCC4)s3)nc2c1 [Example 0093] |  |  |  | < 1000 | 1000 to 10000 | 10000 to 50000
Cc1n[nH]c(C)c1-c1cnc2ccc(Nc3nnc(C4CCCC4)s3)nc2c1 [Example 0215] | < 1000 | 1000 to 10000 | < 1000 |  |  | 
COCc1nnc(Nc2ccc3ncc(-c4cnn(C)c4)cc3n2)s1 [Example 0170, 5-(Methoxymethyl)-N-(7-(1-methyl-1H-pyrazol-4-yl)-1,5-naphthyridin-2-yl)-1,3,4-thiadiazole-2-amine] |  |  |  | < 1000 | 1000 to 10000 | < 1000
CCCc1nn(CCCN2CCCC2)cc1-c1cnc2ccc(Nc3nnc(C(C)C)s3)nc2c1 [Example 0147] |  |  |  | < 1000 | < 1000 | < 1000
c1ncc(N2CCOCC2)cc1Nc1cnc2ccc(Nc3nnc(C4CCCC4)s3)nc2c1 [Example 0090] |  |  |  | < 1000 | < 1000 | < 1000
c1cc(CN2CCCC2)ncc1Nc1cnc2ccc(Nc3nnc(C4CCCC4)s3)nc2c1 [Example 0086] |  |  |  | < 1000 | < 1000 | < 1000
F[C@H]1CCN(CCCn2cc(-c3cnc4ccc(Nc5nnc(C6CCCC6)s5)nc4c3)cn2)C1 [Example 0346] | < 1000 | < 1000 | < 1000 |  |  | 
COCc1nn(C)cc1-c1cnc2ccc(Nc3cc(C)cnn3)nc2c1 [Example 0161] |  |  |  | < 1000 | < 1000 | < 1000
CN(c1cccnc1)c1cnc2ccc(Nc3nnc(C4CCCC4)s3)nc2c1 [Example 0071] |  |  |  | < 1000 | < 1000 | < 1000
c1nc2ccc(Nc3cc(C4CCCC4)cnn3)nc2cc1-c1cnn(CCCN2CCCC2)c1 [Example 0016] |  |  |  | < 1000 | < 1000 | < 1000
COc1cncc(Nc2cnc3ccc(Nc4cc(C)cnn4)nc3c2)c1 [Example 0157, N^7-(5-methoxypyridin-3-yl)-N^2-(5-methylpyridazin-3-yl)-1,5-naphthyridine-2,7-diamine] |  |  |  | < 1000 | < 1000 | < 1000
c1nc2ccc(Nc3cc(C4CC4)cnn3)nc2cc1-c1cnn(CCCN2CCCC2)c1 [Example 0295, N-(5-cyclopropylpyridazin-3-yl)-7-(1-(3-(pyrrolidin-1-yl)propyl)-1H-pyrazol-4-yl)-1,5-naphthyridine-2-amine] | < 1000 | < 1000 | < 1000 |  |  | 
CN1CCC(n2cc(-c3cnc4ccc(Nc5nnc(C6CCCC6)s5)nc4c3)cn2)CC1 [Example 0318, 5-cyclopentyl-N-(7-(1-(1-methylpiperidin-4-yl)-1H-pyrazol-4-yl)-1,5-naphthyridin-2-yl)-1,3,4-thiadiazole-2-amine] | < 1000 | < 1000 | < 1000 |  |  | 
c1nc2ccc(Nc3cc(C4CCCCC4)cnn3)nc2cc1-c1cnn(CCCN2CCCC2)c1 [Example 0017] |  |  |  | < 1000 | < 1000 | < 1000
CC(C)c1nnc(Nc2ccc3ncc(-c4cn(C)nc4-c4ccncc4)cc3n2)s1 [Example 0135] |  |  |  | < 1000 | < 1000 | 1000 to 10000
CNCc1nn(C)cc1-c1cnc2ccc(Nc3nnc(C(C)C)s3)nc2c1 [Example 0383, 5-isopropyl-N-(7-(1-methyl-3-((methylamino)methyl)-1H-pyrazol-4-yl)-1,5-naphthyridin-2-yl)-1,3,4-thiadiazole-2-amine] | < 1000 | 1000 to 10000 | < 1000 |  |  | 
